From ChEMBL document CHEMBL1201862, “PubChem BioAssay data set” (2004)
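Where inhibition never reached the appropriate level, the endpoint shown equals the highest concentration tested. Otherwise, values were interpolated linearly from a five-concentration, 48-hour dose response in 96-well plates. GI50 marks 50% less growth.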 Calls of active or inactive are those of the source. No stated cut-off is given here; in the data, active = GI50 up to about 1.1 µM and inactive = higher.

Tests used:
Assay in all cases: growth of human tumour cells (NCI), 48 h
SF-268 = system: SF-268
KM-20L2 = system: KM-20L2
SK-MEL-5 = system: SK-MEL-5
CCRF-CEM = system: CCRF-CEM
U-251 = system: U-251
SF-539 = system: SF-539
HCT-15 = system: HCT-15
KM12 = system: KM12
SK-MEL-28 = system: SK-MEL-28
HT-29 = system: HT-29
SK-MEL-2 = system: SK-MEL-2
COLO 205 = system: COLO 205
NCI-H460 = system: NCI-H460
EKVX = system: EKVX
A498 = system: A498
SNB-75 = system: SNB-75
MDA-MB-231 = system: MDA-MB-231
BT-549 = system: BT-549
DU-145 = system: DU-145
MDA-N = system: MDA-N

| SMILES | GI50 (SF-268) | GI50 (KM-20L2) | GI50 (SK-MEL-5) | GI50 (CCRF-CEM) | GI50 (U-251) | GI50 (SF-539) | GI50 (HCT-15) | GI50 (KM12) | GI50 (SK-MEL-28) | GI50 (HT-29) | GI50 (SK-MEL-2) | GI50 (COLO 205) | GI50 (NCI-H460) | GI50 (EKVX) | GI50 (A498) | GI50 (SNB-75) | GI50 (MDA-MB-231) | GI50 (BT-549) | GI50 (DU-145) | GI50 (MDA-N) |
| --- | --- | --- | --- | --- | --- | --- | --- | --- | --- | --- | --- | --- | --- | --- | --- | --- | --- | --- | --- | --- |
| COc1ccc2c([nH]c3cc(O)c(C)cc32)c1C=O | > 25 µM (inactive) | > 25 µM (inactive) | > 25 µM (inactive) | 23.6 µM (inactive) | > 25 µM (inactive) | > 25 µM (inactive) | 14.8 µM | > 25 µM (inactive) | > 25 µM (inactive) | > 25 µM (inactive) | > 25 µM (inactive) | > 25 µM (inactive) | 11.2 µM (inactive) | – | – | – | – | – | – | – |
| FC(F)(F)c1cccc2ns[s+]c12 | > 100 µM (inactive) | > 100 µM (inactive) | 69.8 µM (inactive) | > 100 µM (inactive) | > 100 µM (inactive) | > 100 µM (inactive) | – | > 100 µM (inactive) | > 100 µM (inactive) | > 100 µM (inactive) | > 100 µM (inactive) | > 100 µM (inactive) | > 100 µM (inactive) | > 100 µM (inactive) | > 100 µM (inactive) | > 100 µM (inactive) | – | – | – | – |
| O=C1CCC(Cl)=CC2CCCN12 (centres undefined) | – | > 100 µM (inactive) | > 100 µM (inactive) | > 10 µM (inactive) | > 100 µM (inactive) | > 100 µM (inactive) | > 100 µM | – | > 100 µM (inactive) | > 100 µM (inactive) | > 100 µM (inactive) | > 100 µM (inactive) | > 100 µM (inactive) | > 100 µM (inactive) | > 100 µM (inactive) | > 100 µM (inactive) | – | – | – | – |
| CCc1cccc(C(C)CC)c1NC(=O)CC1C(=O)Nc2ccccc2S1(=O)=O (centres undefined) | 25.8 µM (inactive) | 25.2 µM (inactive) | 45.9 µM (inactive) | 5.22 µM (inactive) | 40.3 µM (inactive) | 21.5 µM (inactive) | 13.3 µM | 11.5 µM (inactive) | 53.2 µM (inactive) | 15.2 µM (inactive) | 64.6 µM (inactive) | 20.9 µM (inactive) | 23.9 µM (inactive) | 7.05 µM (inactive) | 33.6 µM (inactive) | 14.8 µM (inactive) | – | – | – | – |
| COc1ccc(-c2c(C3=NCCCN3)nnn2-c2ccccc2)cc1 | > 100 µM (inactive) | > 100 µM (inactive) | > 100 µM (inactive) | > 100 µM (inactive) | > 100 µM (inactive) | > 100 µM (inactive) | > 100 µM | > 100 µM (inactive) | > 100 µM (inactive) | > 100 µM (inactive) | > 100 µM (inactive) | > 100 µM (inactive) | > 100 µM (inactive) | > 100 µM (inactive) | > 100 µM (inactive) | 47.4 µM (inactive) | – | – | – | – |
| CCC1(O)CC(c2ccccc2)N(C)C(c2ccccc2)C1 (centres undefined) | > 100 µM (inactive) | > 100 µM (inactive) | > 100 µM (inactive) | > 100 µM (inactive) | > 100 µM (inactive) | > 100 µM (inactive) | > 100 µM | > 100 µM (inactive) | > 100 µM (inactive) | 97.9 µM (inactive) | > 100 µM (inactive) | > 100 µM (inactive) | > 100 µM (inactive) | > 100 µM (inactive) | > 100 µM (inactive) | > 100 µM (inactive) | – | – | – | – |
| CC(=O)OCC1OC(N=[N+]=[N-])C(OC(C)=O)C(OC(C)=O)C1OC1OC(COC(C)=O)C(OC(C)=O)C(OC(C)=O)C1OC(C)=O (centres undefined) | > 100 µM (inactive) | > 100 µM (inactive) | > 100 µM (inactive) | > 100 µM (inactive) | > 100 µM (inactive) | 58.6 µM (inactive) | > 100 µM | > 100 µM (inactive) | > 100 µM (inactive) | > 100 µM (inactive) | > 100 µM (inactive) | > 100 µM (inactive) | > 100 µM (inactive) | > 100 µM (inactive) | > 100 µM (inactive) | 20.5 µM (inactive) | – | – | – | – |
| C=CCNC(=S)OCCCCCCCCCC | 19.5 µM (inactive) | 18.6 µM (inactive) | 16.7 µM (inactive) | 15.7 µM (inactive) | 16.7 µM (inactive) | 19 µM (inactive) | 15.8 µM | 12.4 µM (inactive) | 23.6 µM (inactive) | 18.6 µM (inactive) | 12.3 µM (inactive) | – | 17.6 µM (inactive) | 23.8 µM (inactive) | 18.5 µM (inactive) | 23.6 µM (inactive) | – | – | – | – |
| O=[N+]([O-])/C=C/c1cccc(F)c1 | 12.4 µM (inactive) | – | 4.5 µM (inactive) | 2.22 µM (inactive) | 3.53 µM (inactive) | 4.45 µM (inactive) | 2.21 µM | 2.95 µM (inactive) | 2.28 µM (inactive) | 3.18 µM (inactive) | 12.4 µM (inactive) | 2.74 µM (inactive) | 12.2 µM (inactive) | 3.03 µM (inactive) | 13.7 µM (inactive) | 13.7 µM (inactive) | 16.4 µM (inactive) | 2.03 µM (inactive) | 4.47 µM (inactive) | 2.64 µM (inactive) |
| CN1CCc2c1nc(-c1ccccc1)c1c2N(C)CC1 | > 100 µM (inactive) | 52.8 µM (inactive) | 36.1 µM (inactive) | 60.5 µM (inactive) | > 100 µM (inactive) | 60.8 µM (inactive) | 66.4 µM | 48.4 µM (inactive) | – | 31.1 µM (inactive) | > 100 µM (inactive) | 34.7 µM (inactive) | 71.1 µM (inactive) | > 100 µM (inactive) | 26.1 µM (inactive) | > 100 µM (inactive) | – | – | – | – |
| CCCCCCCCCCCCCCCCCCCCCCC(=O)N[C@H]1CCc2cc(OC)c(OC)c(OC)c2-c2ccc(SC)c(=O)cc21 | 59.7 µM (inactive) | 18.7 µM (inactive) | 28.4 µM (inactive) | 30.1 µM (inactive) | 24.2 µM (inactive) | 17.6 µM (inactive) | 26.4 µM | 35.2 µM (inactive) | 84.5 µM (inactive) | 30.6 µM (inactive) | – | 12.8 µM (inactive) | 28.4 µM (inactive) | 29.1 µM (inactive) | 11.5 µM (inactive) | 20.2 µM (inactive) | – | – | – | – |
| CCCCNC1=C(C(=O)OCC)/C(=N/NC(=O)c2ccccc2O)CO1 | 6.97 µM (inactive) | > 100 µM (inactive) | 29.2 µM (inactive) | 23.7 µM (inactive) | 20.1 µM (inactive) | 11.8 µM (inactive) | – | 79.3 µM (inactive) | 18.5 µM (inactive) | – | 18.4 µM (inactive) | > 100 µM (inactive) | 33.3 µM (inactive) | > 100 µM (inactive) | > 100 µM (inactive) | 1.73 µM (inactive) | – | – | – | – |
| COc1nc2nccnc2c(=O)n1C | > 10 µM (inactive) | – | > 10 µM (inactive) | > 10 µM (inactive) | > 10 µM (inactive) | > 10 µM (inactive) | > 10 µM | > 10 µM (inactive) | > 10 µM (inactive) | > 10 µM (inactive) | > 10 µM (inactive) | > 10 µM (inactive) | > 10 µM (inactive) | > 10 µM (inactive) | > 10 µM (inactive) | > 10 µM (inactive) | > 10 µM (inactive) | > 10 µM (inactive) | > 10 µM (inactive) | > 10 µM (inactive) |
| CC(=O)N(C(=O)CC(=O)N1N=C(c2ccccc2)C(/N=N/c2ccccc2[N+](=O)[O-])C1=O)c1ccc(Cl)cc1 (centres undefined) | > 10 µM (inactive) | – | > 10 µM (inactive) | > 10 µM (inactive) | > 10 µM (inactive) | > 10 µM (inactive) | > 10 µM | > 10 µM (inactive) | > 10 µM (inactive) | > 10 µM (inactive) | > 10 µM (inactive) | > 10 µM (inactive) | > 10 µM (inactive) | > 10 µM (inactive) | > 10 µM (inactive) | 9.55 µM (inactive) | > 10 µM (inactive) | > 10 µM (inactive) | > 10 µM (inactive) | > 10 µM (inactive) |
| O=P1(C(O)/C=C/c2ccccc2)N(Cc2ccccc2)[C@H](c2ccccc2)[C@@H](c2ccccc2)N1Cc1ccccc1 (some centres undefined) | 23.8 µM (inactive) | – | 14.7 µM (inactive) | 10.5 µM (inactive) | 19.9 µM (inactive) | > 51.3 µM (inactive) | 32.1 µM | 17 µM (inactive) | 35.2 µM (inactive) | 14.2 µM (inactive) | 14.1 µM (inactive) | 11.9 µM (inactive) | 15 µM (inactive) | 11.7 µM (inactive) | 37.7 µM (inactive) | 19 µM (inactive) | 17.3 µM (inactive) | 28.6 µM (inactive) | 38.5 µM (inactive) | 16.5 µM (inactive) |
| O=C(CC1C(=O)Nc2ccccc2[S+]1[O-])Nc1cc(Cl)ccc1Cl (centres undefined) | > 100 µM (inactive) | > 100 µM (inactive) | > 100 µM (inactive) | > 100 µM (inactive) | > 100 µM (inactive) | > 100 µM (inactive) | > 100 µM | – | > 100 µM (inactive) | > 100 µM (inactive) | > 100 µM (inactive) | – | > 100 µM (inactive) | > 100 µM (inactive) | > 100 µM (inactive) | > 100 µM (inactive) | – | – | – | – |
| CCCC(=O)OC1CC(n2cc(F)c(=O)[nH]c2=O)OC1CO (centres undefined) | 0.0356 µM (active) | – | 0.329 µM (active) | 0.0355 µM (active) | > 5.24 µM (inactive) | 0.00859 µM (active) | > 7.64 µM | > 10 µM (inactive) | > 7.21 µM (inactive) | 1.29 µM (inactive) | > 10 µM (inactive) | 4.71 µM (inactive) | 0.0948 µM (active) | > 10 µM (inactive) | 2.07 µM (inactive) | 1.53 µM (inactive) | > 8.95 µM (inactive) | 0.726 µM (active) | 0.182 µM (active) | 1.63 µM (inactive) |
